# “Also recorded” adds a separate entry of the source.
# Experiments:
# [1] = test system: OT-II CD4+CD25+ Treg cells; experiment: Conversion of OT-II Tregs to Th17 phenotype by antibody-treated DCs; type: cell-based, mouse
# Description: FIG. 16 is a series of plots showing conversion of OT-II CD4 Treg cells to a Th17 phenotype by co-incubation with DCs expressing the Kb-peptide constructs treated with MTabs. OT-II CD4+CD25+ splenic Tregs were isolated by MACS and added 1:1 to DCs pulsed with Ovalbumin and treated with hIgM12, hIgM22, or 28-13-3. After 48 hours, the T cells were harvested, stained with CD4, and internally stained with FoxP3 PE and IL-17 APC. Expression was assayed by flow cytometry, and cells were gated on CD4.
# This was measured by loss of FoxP3 expression and gain of IL-17 expression, corresponding to loss of a repressive phenotype and gain of an effector phenotype. Studies were conducted to compare the ability of wild type DCs or B7DC−/− B7DC reconstituted DCs to B7DC−/− transduced with the Kb-peptide constructs to convert Tregs to Th17 polarized T cells. DCs were pulsed with 10 ug/mL ovalbumin and treated with 10 ug/mL of either hIgM12, hIgM22, or 28-13-3, 24 hours prior to addition of T cells. Splenic OT-II Tregs were isolated by MACs and added to DC cultures at a 1:1 ratio. After 48 hours of co-incubation, T cells were harvested, stained with CD4 PerCP, and permeabilized and stained with FoxP3 PE and IL-17 APC. Samples were run by flow cytometry and cells were gated by high CD4 expression. Conversion was measured by loss of FoxP3 expression and gain of IL-17 expression.
# [2] = test system: matured human monocyte-derived DC; experiment: Antigen uptake assay, matured human DC; type: cell-based; conditions: matured human DC, OVA-FITC
# Description: FIGS. 2A to 2G are a series of pictures showing that a kinase activated pathway regulates antibody-induced antigen uptake by matured DC. Matured human monocyte-derived DC were treated with the MTAb B7-DC XAb for varying time periods and evaluated for the phosphorylation status of select signaling pathway intermediates by immunoprecipitation with DAP12 (MC457), Syk (4D10), and PLCγ1 (MC490) reactive antibodies followed by western blot analysis using the phosphotyrosine reactive antibody 4G10 as a probe (FIGS. 2A-2C). Samples of the cells blocked with indicated concentration of piceatannol (FIG. 2D) or with […] of piceatannol (FIG. 2E) were analyzed for phosphorylation of Syk (FIG. 2D) and PLCγ1 (FIG. 2E). To investigate the functional importance of these signaling intermediates in the regulation of antigen uptake by matured DC activated with B7-DC XAb, varying concentrations of pharmacologic inhibitors were used to block the activity of p72Syk (piceatannol) and PLCγ1 (U73122) (FIGS. 2F and 2G, respectively). Antigen uptake was assessed by pulsing cultures with FITC-conjugated ovalbumin and measuring intracellular fluorescence 16 hours later in CD11c positive cells by flow cytometry.
# Human DC were generated from peripheral blood CD14^+ monocytes by incubation in GM-CSF and IL-4 for five days. […] All cultures were pulsed with OVA-FITC at the time of treatment with IgM antibodies, and […] OVA-FITC was assessed 24 hours later by flow cytometry.
# FIGS. 4A and 4B are a series of plots showing the effects of kinase inhibitors on OVA-FITC uptake by matured human DC, as determined by flow cytometry. […] All cells were pulsed with OVA-FITC at the time of treatment with IgM antibody, and CD11c+ cells were analyzed for OVA-FITC uptake 24 hours later by flow cytometry. […]
# Antigen uptake experiments were carried out as described previously (Radhakrishnan et al. (2005) Proc. Natl. Acad. Sci. U.S.A. 102:11438-11443). […] The matured cells were incubated with ovalbumin labeled with FITC or APC and control antibody or B7-DC XAb for two hours, washed and analyzed by FACSCALIBUR™ (Becton Dickinson). […]
# matured mouse DC = experiment: Antigen uptake assay, matured mouse DC; type: cell-based
# Description: For transducing DC with the virus, 1 ml of supernatant containing the scrambled virus or shDNA containing dominant negative TREM-2 virus was mixed with 2 ml of RPMI. Cytokines were added to a final concentration of 10 ng/ml murine GM-CSF and 1 ng/ml murine IL-4 at day 2 of DC culture. Cells were maintained for another 3 days before using the DC for antigen uptake assay as mentioned above or for analysis of phosphorylation status of DAP12 and Syk proteins.
# Antigen uptake experiments were carried out as described previously (Radhakrishnan et al. (2005) Proc. Natl. Acad. Sci. U.S.A. 102:11438-11443). Day 5 DC were matured with TLR ligand CpG-ODN for mouse DC, or with pI:C for human DC. The matured cells were incubated with ovalbumin labeled with FITC or APC and control antibody or B7-DC XAb for two hours, washed and analyzed by FACSCALIBUR™ (Becton Dickinson). In studies involving inhibitors, cells were pretreated 30 minutes as indicated or at 10 μM concentration prior to addition of control antibody or B7-DC XAb. In vivo antigen uptake assays involving wild type or TREM-2−/− mice were carried out by intravenous injection of 10 μg of control antibody or B7-DC XAb on three consecutive days (days −1, 0 and +1). Ovalbumin coupled to FITC was injected in the right foot pad at 1 mg/ml in PBS at […]. The draining lymph node cells were harvested 48 hours after injection of antigen, and stained with anti-mouse CD11c-PE. The data are expressed as percent green cells (ovalbumin-FITC) that are positive for CD11c.
substance,measurement,setting,value
B7-DC XAb: human monoclonal IgM from a Waldenstrom's macroglobulinemia patient that binds and cross-links B7-DC on DC,conversion of Tregs to Th17 polarized cells,[1]; knockout DCs expressing Kb-12p9A,responded
same,conversion of Tregs to Th17 polarized cells,"[1]; wild type DCs and B7DC reconstituted knockouts, 10 ug/mL",converted Tregs to Th17 polarized cells
same,antigen uptake by matured DC,[2],regaining the ability to take up antigen; also recorded: take up ovalbumin when activated
same,antigen uptake,matured mouse DC; DC from CD40 KO mice,displayed enhanced antigen uptake
same,ovalbumin uptake by matured DC,matured mouse DC; DC transduced with scrambled shDNA,enhanced ovalbumin uptake
same,ovalbumin uptake by matured DC,matured mouse DC; TREM-2 KO DC,did not regain the ability to take up ovalbumin

# Source: patent US11274131B2, “IgM-mediated receptor clustering and cell modulation” (MAYO FOUNDATION FOR MEDICAL EDUCATION AND RESEARCH, priority 2007, dated 2022)
